# Assay results taken from ChEMBL document CHEMBL1201862, “PubChem BioAssay data set” (2004).
# Active and inactive are the calls of the source.
# Columns and labels:
# [1] = biological target: ADP-ribosylation factor GTPase-activating protein 1 (Rattus norvegicus, UniProt Q62848); experiment: Fluorescence polarization-based biochemical high throughput dose response screening assay to identify inhibitors of ADP-ribosylation factor GTPase activating protein 1 (ARFGAP1).; type: functional
# [2] = biological target: G-protein coupled receptor 55 (Homo sapiens, UniProt Q9Y2T6); experiment: inhibition of LPI-stimulated GPR55 beta-arrestin translocation – imaging, U2OS, beta-arrestin-GFP, LPI agonist, primary screen (AID 2013); type: functional;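 note: antagonist potency measured as reduced agonist-driven arrestin aggregation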
# [3] = biological target: T1, Tyrosine-protein phosphatase non-receptor type 11 (Homo sapiens, UniProt Q06124); experiment: PTPN11 enzyme inhibitors – biochemical, selectivity assay for STEP inhibitor project, dose response (AID 602367); type: functional; settings: read-out: IC50_Mean
# T1 sequence (Q06124 whole entry): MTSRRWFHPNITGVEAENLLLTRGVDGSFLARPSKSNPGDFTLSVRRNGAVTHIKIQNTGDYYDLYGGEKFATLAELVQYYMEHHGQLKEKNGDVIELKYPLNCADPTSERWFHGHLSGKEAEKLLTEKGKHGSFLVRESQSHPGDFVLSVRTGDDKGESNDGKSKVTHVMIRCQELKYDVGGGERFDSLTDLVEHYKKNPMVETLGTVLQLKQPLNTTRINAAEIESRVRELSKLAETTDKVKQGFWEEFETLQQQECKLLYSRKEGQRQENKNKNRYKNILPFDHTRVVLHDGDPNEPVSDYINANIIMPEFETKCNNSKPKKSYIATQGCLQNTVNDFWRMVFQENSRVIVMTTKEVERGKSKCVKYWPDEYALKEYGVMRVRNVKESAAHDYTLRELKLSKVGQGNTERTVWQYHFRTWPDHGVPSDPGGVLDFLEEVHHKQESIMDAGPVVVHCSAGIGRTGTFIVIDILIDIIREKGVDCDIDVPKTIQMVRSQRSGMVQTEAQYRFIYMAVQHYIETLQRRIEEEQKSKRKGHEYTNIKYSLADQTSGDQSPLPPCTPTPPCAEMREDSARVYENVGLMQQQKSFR
# [4] = biological target: Dual specificity protein phosphatase 3 (Homo sapiens, UniProt P51452); experiment: VHR phosphatase inhibition, dose response, selectivity assay for STEP inhibitor project, biochemical (AID 602374); type: functional; settings: read-out: IC50_Mean
# [5] = biological target: Tyrosine-protein phosphatase non-receptor type 22 (Homo sapiens, UniProt Q9Y2R2); experiment: lymphoid phosphatase LYP inhibitors – biochemical, selectivity assay for STEP inhibitor project, dose response (AID 624241); type: functional
# [6] = biological target: T2, Tyrosine-protein phosphatase non-receptor type 5 (Homo sapiens, UniProt P54829); experiment: PTPN5 enzyme inhibition – biochemical, fluorescence intensity, uHTS hits, confirmation (AID 602372); type: functional; settings: read-out: IC50_Mean
# T2 sequence (P54829 whole entry): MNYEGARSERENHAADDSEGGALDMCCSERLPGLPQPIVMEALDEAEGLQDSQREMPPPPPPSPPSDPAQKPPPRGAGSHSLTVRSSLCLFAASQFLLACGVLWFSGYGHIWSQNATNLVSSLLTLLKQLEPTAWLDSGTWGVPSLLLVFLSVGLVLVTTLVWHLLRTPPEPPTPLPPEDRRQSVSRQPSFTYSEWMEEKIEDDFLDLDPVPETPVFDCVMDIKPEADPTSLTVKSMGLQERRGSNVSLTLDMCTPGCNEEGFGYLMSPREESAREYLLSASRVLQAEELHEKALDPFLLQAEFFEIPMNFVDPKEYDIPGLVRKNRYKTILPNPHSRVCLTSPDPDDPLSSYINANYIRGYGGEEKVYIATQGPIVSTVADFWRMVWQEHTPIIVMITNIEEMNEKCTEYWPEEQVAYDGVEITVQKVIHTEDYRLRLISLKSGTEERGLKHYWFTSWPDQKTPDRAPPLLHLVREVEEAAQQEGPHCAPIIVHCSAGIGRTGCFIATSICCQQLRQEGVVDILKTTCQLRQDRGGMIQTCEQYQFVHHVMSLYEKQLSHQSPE
# Nonstructural protein 1 = Nonstructural protein 1 (Influenza A virus, UniProt Q194T2); type: functional, Influenza A virus (A/California/07/2009(H1N1))
# [7] = biological target: T3, Rac GTPase-activating protein 1 (Homo sapiens, UniProt Q9H0H5); experiment: blockers of MgcRacGAP-driven Rac1 GTP hydrolysis – biochemical, ADP Hunter fluorescence, primary and confirmatory, confirmation (AID 624330); type: functional
# T3 sequence (Q9H0H5 whole entry): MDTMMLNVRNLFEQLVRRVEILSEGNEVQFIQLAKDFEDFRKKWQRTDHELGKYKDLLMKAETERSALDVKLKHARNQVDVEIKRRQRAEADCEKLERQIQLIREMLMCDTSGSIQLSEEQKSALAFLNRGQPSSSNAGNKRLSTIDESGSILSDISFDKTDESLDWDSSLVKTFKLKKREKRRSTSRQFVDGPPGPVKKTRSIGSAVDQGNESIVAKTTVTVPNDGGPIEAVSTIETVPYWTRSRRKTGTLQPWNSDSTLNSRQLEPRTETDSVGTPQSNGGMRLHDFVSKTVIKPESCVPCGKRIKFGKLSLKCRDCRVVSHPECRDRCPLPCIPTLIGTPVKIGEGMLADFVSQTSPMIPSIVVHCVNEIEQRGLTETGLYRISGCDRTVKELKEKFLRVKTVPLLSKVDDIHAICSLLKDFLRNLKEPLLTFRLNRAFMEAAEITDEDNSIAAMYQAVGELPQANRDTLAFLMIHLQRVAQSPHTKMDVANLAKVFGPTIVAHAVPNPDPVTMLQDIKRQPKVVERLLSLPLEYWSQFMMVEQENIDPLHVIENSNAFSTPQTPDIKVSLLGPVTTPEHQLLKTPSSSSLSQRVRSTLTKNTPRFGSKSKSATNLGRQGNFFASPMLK
# [8] = viability loss in HeLa cells – cytotoxicity control for MgcRacGAP inhibitor project, dose response (AID 624300); type: functional
# [9] = Counterscreen for inhibitors of Trypanosoma brucei methionyl tRNA synthetase (MetRS): Luminescence-based cell-based high throughput dose response assay to identify compounds that are cytotoxic to Jurkat human T lymphocyte cells.; type: functional; settings: Homo sapiens, Jurkat
# [10] = biological target: T4, Methionyl-tRNA synthetase, putative (Trypanosoma brucei brucei, UniProt Q38C91); type: functional, Trypanosoma brucei brucei strain 927/4 GUTat10.1
# T4 sequence (Q38C91 whole entry): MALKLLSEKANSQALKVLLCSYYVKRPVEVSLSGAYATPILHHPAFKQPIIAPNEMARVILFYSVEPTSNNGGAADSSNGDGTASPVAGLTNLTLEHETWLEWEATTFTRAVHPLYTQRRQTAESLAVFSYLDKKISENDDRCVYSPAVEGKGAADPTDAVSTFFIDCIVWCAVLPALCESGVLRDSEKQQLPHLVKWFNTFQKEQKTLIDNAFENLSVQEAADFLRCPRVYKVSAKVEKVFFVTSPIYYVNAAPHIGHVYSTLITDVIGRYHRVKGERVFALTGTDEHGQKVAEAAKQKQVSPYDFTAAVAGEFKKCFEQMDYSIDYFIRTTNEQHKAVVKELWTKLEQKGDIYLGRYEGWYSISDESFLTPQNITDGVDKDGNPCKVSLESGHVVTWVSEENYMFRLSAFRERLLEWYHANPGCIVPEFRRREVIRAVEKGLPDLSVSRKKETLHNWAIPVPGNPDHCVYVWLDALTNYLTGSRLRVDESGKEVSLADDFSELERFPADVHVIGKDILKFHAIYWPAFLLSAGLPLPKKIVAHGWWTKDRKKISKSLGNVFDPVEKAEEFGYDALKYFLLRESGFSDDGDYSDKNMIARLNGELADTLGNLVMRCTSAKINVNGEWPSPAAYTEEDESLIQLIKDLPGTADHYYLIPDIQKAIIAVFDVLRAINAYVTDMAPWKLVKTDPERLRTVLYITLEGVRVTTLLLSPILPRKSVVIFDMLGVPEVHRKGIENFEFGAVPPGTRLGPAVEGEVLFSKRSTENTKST
# [11] = biological target: T4, Methionyl-tRNA synthetase, putative; type: functional, Trypanosoma brucei brucei strain 927/4 GUTat10.1; remark: listed apart in the source
# [12] = THP-1 cell cytotoxicity, dose response, cytotoxicity control for non-replicating M. tuberculosis project (AID 489025); type: functional
# [13] = biological target: T5, Replicative DNA helicase DnaB (Mycobacterium tuberculosis, UniProt P9WMR3); experiment: DnaB intein splicing inhibitors, dose response, biochemical, cell-free fluorescence (AID 449749); type: functional
# T5 sequence (P9WMR3 whole entry): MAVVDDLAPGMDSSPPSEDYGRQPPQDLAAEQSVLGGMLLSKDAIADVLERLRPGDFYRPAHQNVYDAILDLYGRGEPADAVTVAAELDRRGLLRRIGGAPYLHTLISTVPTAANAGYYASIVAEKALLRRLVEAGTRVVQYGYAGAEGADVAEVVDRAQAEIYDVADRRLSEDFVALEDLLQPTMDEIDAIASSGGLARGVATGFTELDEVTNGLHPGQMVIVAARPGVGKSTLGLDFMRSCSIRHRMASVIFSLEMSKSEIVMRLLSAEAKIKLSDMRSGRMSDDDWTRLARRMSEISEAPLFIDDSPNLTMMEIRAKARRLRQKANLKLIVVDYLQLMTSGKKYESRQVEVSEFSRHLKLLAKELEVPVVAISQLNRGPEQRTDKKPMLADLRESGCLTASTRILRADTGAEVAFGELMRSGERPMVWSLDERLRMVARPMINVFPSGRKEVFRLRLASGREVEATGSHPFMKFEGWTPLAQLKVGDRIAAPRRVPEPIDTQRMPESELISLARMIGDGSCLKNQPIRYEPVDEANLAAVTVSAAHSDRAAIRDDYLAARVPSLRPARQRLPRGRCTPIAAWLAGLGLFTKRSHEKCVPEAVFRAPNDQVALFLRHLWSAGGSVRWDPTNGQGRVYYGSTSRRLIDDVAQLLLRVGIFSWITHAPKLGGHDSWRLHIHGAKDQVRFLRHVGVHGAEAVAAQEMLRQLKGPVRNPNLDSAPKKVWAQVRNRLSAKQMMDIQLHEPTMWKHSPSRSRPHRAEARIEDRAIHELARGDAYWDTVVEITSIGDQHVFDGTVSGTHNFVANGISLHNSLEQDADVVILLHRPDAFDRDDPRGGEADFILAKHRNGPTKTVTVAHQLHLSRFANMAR
# Protein RecA = biological target: T6, Protein RecA (Mycobacterium tuberculosis, UniProt P9WHJ3); experiment: Fluorescence Cell-Free Homogeneous Dose Retest to Identify Inhibitors of RecA-Intein Splicing Activity. [Related pubchem assays (depositor defined):AID2097, AID2223, AID489010, AID492950]; type: functional
# T6 sequence (P9WHJ3 whole entry): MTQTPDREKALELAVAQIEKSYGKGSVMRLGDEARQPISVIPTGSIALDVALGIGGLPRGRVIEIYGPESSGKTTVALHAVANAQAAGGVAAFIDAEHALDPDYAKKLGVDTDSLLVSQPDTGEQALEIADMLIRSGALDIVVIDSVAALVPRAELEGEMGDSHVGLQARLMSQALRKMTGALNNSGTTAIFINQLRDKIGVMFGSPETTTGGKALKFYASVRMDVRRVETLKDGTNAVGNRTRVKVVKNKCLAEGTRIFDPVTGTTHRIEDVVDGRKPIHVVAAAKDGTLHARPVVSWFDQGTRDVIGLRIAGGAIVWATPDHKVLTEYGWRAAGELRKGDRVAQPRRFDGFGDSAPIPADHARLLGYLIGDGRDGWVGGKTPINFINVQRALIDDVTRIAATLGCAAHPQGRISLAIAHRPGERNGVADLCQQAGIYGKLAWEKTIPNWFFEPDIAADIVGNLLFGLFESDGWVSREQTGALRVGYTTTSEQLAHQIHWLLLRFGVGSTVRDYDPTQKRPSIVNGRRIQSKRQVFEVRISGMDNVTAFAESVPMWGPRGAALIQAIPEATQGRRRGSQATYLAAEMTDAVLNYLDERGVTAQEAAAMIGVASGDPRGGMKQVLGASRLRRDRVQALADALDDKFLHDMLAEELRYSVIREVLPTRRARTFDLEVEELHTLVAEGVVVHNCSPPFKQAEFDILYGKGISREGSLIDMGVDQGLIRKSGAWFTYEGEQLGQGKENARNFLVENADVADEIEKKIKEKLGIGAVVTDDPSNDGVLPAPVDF
# cells = type: functional
# [14] = Vero E6 cell cytotoxicity, dose response, cytotoxicity control for non-replicating M. tuberculosis project, secondary assay (AID 492998); type: functional, VeroE6; settings: Vero C1008
# [15] = Fluorescence-based cell-based high throughput dose response assay for inhibitors of the interaction of nucleotide-binding oligomerization domain containing 2 (NOD2) and the receptor-interacting serine-threonine kinase 2 (RIPK2).; type: functional; settings: Homo sapiens
# [16] = biological target: T7, Low molecular weight phosphotyrosine protein phosphatase (Homo sapiens, UniProt P24666); type: functional; settings: read-out: IC50_Mean
# T7 sequence (P24666 whole entry): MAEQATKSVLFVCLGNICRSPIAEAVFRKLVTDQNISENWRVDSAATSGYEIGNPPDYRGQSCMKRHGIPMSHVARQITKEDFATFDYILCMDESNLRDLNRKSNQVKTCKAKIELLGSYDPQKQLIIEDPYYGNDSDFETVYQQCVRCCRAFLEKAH
# Chain of G-protein coupled receptor 55 (Q9Y2T6 whole entry): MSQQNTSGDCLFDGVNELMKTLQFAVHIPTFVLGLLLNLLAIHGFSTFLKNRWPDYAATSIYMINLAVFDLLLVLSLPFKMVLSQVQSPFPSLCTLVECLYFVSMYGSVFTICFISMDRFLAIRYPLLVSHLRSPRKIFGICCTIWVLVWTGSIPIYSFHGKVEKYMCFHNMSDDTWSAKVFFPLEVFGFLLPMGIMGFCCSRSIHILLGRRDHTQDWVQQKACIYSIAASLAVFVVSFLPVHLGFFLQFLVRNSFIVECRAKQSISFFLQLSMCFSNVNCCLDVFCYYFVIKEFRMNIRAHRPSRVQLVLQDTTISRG
# Chain of ADP-ribosylation factor GTPase-activating protein 1 (Q62848 whole entry): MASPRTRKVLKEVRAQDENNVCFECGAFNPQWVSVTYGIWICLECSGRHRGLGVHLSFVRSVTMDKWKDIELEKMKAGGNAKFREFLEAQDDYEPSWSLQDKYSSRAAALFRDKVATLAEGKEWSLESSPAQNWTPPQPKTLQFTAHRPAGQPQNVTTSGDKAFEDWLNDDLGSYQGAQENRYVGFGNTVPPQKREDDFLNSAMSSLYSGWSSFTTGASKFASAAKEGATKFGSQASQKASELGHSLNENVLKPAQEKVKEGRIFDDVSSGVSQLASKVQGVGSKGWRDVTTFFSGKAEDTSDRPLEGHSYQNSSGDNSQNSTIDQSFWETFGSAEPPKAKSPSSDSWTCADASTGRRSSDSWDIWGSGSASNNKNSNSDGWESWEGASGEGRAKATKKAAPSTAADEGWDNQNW
# Chain of Nonstructural protein 1 (Q194T2 whole entry): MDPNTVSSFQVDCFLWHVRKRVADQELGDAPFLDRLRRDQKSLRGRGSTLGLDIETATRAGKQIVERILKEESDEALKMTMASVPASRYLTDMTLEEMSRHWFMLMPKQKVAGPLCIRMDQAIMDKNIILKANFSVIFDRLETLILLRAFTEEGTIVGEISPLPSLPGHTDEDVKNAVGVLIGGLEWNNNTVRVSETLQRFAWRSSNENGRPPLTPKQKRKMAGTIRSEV
# Chain of Tyrosine-protein phosphatase non-receptor type 22 (Q9Y2R2 whole entry): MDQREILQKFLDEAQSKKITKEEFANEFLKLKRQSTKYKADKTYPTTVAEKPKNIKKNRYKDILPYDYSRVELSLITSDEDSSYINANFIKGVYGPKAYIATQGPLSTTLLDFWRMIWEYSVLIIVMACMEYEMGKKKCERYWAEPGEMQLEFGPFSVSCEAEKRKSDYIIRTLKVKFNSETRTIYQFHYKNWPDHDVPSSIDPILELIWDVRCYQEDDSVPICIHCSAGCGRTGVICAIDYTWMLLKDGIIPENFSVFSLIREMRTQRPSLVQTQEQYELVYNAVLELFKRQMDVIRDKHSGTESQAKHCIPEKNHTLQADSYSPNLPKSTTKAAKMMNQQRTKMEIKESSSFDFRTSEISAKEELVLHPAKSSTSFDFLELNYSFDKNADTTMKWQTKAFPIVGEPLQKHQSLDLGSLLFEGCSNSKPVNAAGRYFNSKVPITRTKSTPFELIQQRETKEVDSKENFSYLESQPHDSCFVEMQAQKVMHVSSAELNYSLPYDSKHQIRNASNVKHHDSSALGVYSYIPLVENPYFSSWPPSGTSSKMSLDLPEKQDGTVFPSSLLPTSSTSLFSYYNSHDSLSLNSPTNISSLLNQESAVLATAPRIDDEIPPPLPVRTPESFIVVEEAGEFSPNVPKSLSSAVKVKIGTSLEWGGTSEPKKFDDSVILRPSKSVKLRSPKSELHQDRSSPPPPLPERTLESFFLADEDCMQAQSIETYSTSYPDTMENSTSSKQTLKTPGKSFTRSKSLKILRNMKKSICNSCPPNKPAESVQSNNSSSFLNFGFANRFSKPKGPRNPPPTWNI
# Chain of Dual specificity protein phosphatase 3 (P51452 whole entry): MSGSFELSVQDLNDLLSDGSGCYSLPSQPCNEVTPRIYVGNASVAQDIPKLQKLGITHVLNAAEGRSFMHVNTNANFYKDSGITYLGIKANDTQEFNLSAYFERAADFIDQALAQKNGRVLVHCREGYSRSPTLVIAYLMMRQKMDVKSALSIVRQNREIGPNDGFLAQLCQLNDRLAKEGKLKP
structure (smiles),measurement,setting,value
Cc1cc(OCC(=O)Nc2cccnc2)c2c(C)c(C)c(=O)oc2c1,IC50,[1],64.9 µM (inactive)
COc1ccccc1NS(=O)(=O)c1cc(NC(=S)NCCN2CCOCC2)ccc1N1CCOCC1,IC50,[2],3.2 µM (active)
same,IC50,[3],891 nM (active)
same,IC50,[4],498 nM (active)
same,IC50,[5],31.4 µM (inactive)
same,IC50,[6],8.37 µM (active)
COc1ccc2c(c1)-c1c(ssc1=S)C(C)(C)N2,IC50,Nonstructural protein 1,22.7 µM (active)
same,IC50,[7],29.4 µM (active)
same,CC50,[8],100 µM (active)
O=S(=O)(c1ccc2[nH]c(SCc3ccc(Cl)cc3)nc2c1)N1CCOCC1,IC50,[9],16.9 µM (inactive)
O=S(=O)(c1ccc2nc(SCc3ccc(Cl)cc3)[nH]c2c1)N1CCOCC1,IC50,[10],30.8 µM (inactive)
same,IC50,[11],32.3 µM (inactive)
Cc1noc2ncnc(Sc3ccccc3Cl)c12,CC50,[12],20.2 µM (active)
same,AC50,[13],12.2 µM (active)
same,EC50,Protein RecA,4.04 µM (active)
same,IC50,cells,9.99 µM (active)
same,CC50,[14],16.9 µM (active)
same,IC50,[15],4.4 µM (active)
NC(=S)NN=C1Cc2cccc3cccc1c23,IC50,[16],4.94 µM (active)
